In PubChem BioAssay (NCI) one finds TGI data, which are given here for four molecules.

Among the test systems are SW-620 colon; NCI-H23 lung; HCC-2998 colon; RXF 393 renal; SR leukemia; SF-295 CNS; NCI-H226 lung; M14 melanoma; OVCAR-8 ovarian; HL-60(TB) leukemia; SNB-75 CNS; U251 CNS; LOX IMVI melanoma; CCRF-CEM leukemia; SF-539 CNS; HS 578T breast; IGROV1 ovarian; OVCAR-5 ovarian; OVCAR-4 ovarian.
What all share (test): growth of human tumour cells (NCI), 48 h

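Cells were grown in 96-well plates and exposed to each compound for 48 hours at five concentrations; endpoints were interpolated linearly between bracketing concentrations, or set to the highest concentration if not reached. TGI: total growth inhibition.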

Take `NC(=O)NNCc1c(-c2ccccc2)no[n+]1[O-]`: the TGI with SW-620 colon, in the assay on NCI-H23 lung, in the assay on HCC-2998 colon, in the assay with RXF 393 renal, in the assay on SR leukemia and in the assay with SF-295 CNS was more than 100 µM in each case. The TGI with NCI-H226 lung, in the assay with M14 melanoma, in the assay with OVCAR-8 ovarian, with HL-60(TB) leukemia, in the assay on SNB-75 CNS and in the assay on U251 CNS was more than 100 µM throughout. Besides, the TGI with LOX IMVI melanoma, with CCRF-CEM leukemia, in the assay on SF-539 CNS, in the assay on HS 578T breast, with IGROV1 ovarian and with OVCAR-5 ovarian was more than 100 µM each time. In the assay with OVCAR-4 ovarian, this molecule had a TGI of more than 100 µM.

On to `COc1cc(C2c3[nH]c4ccccc4c3[C@@H](Nc3ccc(C#N)cc3)[C@H]3COC(=O)N23)cc(OC)c1O` (stereo partly specified), for which the TGI in the assay with SW-620 colon stood at 1.49 µM; in the assay with NCI-H23 lung it was 2.55 µM; in the assay on HCC-2998 colon it was 0.704 µM; in the assay with RXF 393 renal it was 4.12 µM; in the assay with SR leukemia, 0.059 µM; in the assay with SF-295 CNS it was 0.734 µM. Besides, the TGI in the assay on NCI-H226 lung worked out at 0.651 µM; in the assay with M14 melanoma it was 1.58 µM; in the assay with OVCAR-8 ovarian, 0.933 µM; with HL-60(TB) leukemia it was 0.165 µM; in the assay on SNB-75 CNS, 0.763 µM; in the assay on U251 CNS it was 1.32 µM. For the same molecule, the TGI in the assay with LOX IMVI melanoma was 0.681 µM; with CCRF-CEM leukemia, 0.404 µM; with SF-539 CNS, 0.208 µM; in the assay on HS 578T breast it was 2.49 µM; in the assay on IGROV1 ovarian it was 3 µM; in the assay on OVCAR-5 ovarian it was 4.54 µM. Moreover, the TGI in the assay on OVCAR-4 ovarian was 4.4 µM.

With `CCOC(=O)c1nc2ccccc2nc1Nc1ccc(OC)cc1`, the TGI is more than 100 µM in the assay on SW-620 colon; more than 100 µM in the assay on NCI-H23 lung; more than 100 µM with HCC-2998 colon; 39.7 µM in the assay with RXF 393 renal; more than 100 µM in the assay on SR leukemia; 54.4 µM in the assay with SF-295 CNS. Besides, the TGI in the assay on NCI-H226 lung is more than 100 µM; with M14 melanoma, more than 100 µM; with OVCAR-8 ovarian, more than 100 µM; in the assay with HL-60(TB) leukemia it was more than 100 µM; in the assay with SNB-75 CNS it was 93.2 µM; with U251 CNS, more than 100 µM. The TGI is more than 100 µM with LOX IMVI melanoma; more than 100 µM in the assay on CCRF-CEM leukemia; 52.1 µM in the assay with SF-539 CNS; more than 100 µM in the assay on HS 578T breast; more than 100 µM in the assay on IGROV1 ovarian; more than 100 µM in the assay on OVCAR-5 ovarian. In the assay on OVCAR-4 ovarian, the TGI turned out to be 55.7 µM.

Take `COC(=O)C1=C(OC(=O)/C=C/c2ccc(Cl)cc2)C(C(=O)OC)[C@]2(O)[C@@H](C(=O)OC)[C@H]1C[C@@H](c1ccccc1)[C@@H]2C(=O)OC` (stereo partly specified): the TGI was more than 100 µM in the assay with SW-620 colon; more than 25.1 µM in the assay with NCI-H23 lung; 46.9 µM in the assay with HCC-2998 colon; more than 100 µM in the assay on RXF 393 renal; more than 100 µM in the assay on SR leukemia; more than 100 µM with SF-295 CNS. For the same molecule, the TGI in the assay on NCI-H226 lung is 18.6 µM; with M14 melanoma, 49.8 µM; in the assay with OVCAR-8 ovarian, more than 30.7 µM; in the assay with HL-60(TB) leukemia, 23.7 µM; with SNB-75 CNS it was more than 100 µM; in the assay with U251 CNS, more than 100 µM. The TGI in the assay on LOX IMVI melanoma is more than 70.4 µM; in the assay on CCRF-CEM leukemia, more than 100 µM; in the assay on SF-539 CNS, 35.6 µM; with HS 578T breast it was 94 µM; in the assay with IGROV1 ovarian, more than 25.9 µM; with OVCAR-5 ovarian, more than 100 µM. This molecule registered a TGI with OVCAR-4 ovarian of more than 100 µM.
